Laboratory results reported in PMC3948918 (PLoS ONE, 2014).
Like-named read-outs stand apart in the source and are kept apart here. Numbered stars: 1 amine (or outer) side, 2 acyl side, 3 side chain; on linkers, the order of the positions; unused ones are H or OH. Bridge positions count the residues as written; N and C are the ends. Square brackets hold non-standard residues; d marks the D form. Peptide text beside a SMILES is read from it. Adda = CO[C@@H](Cc1ccccc1)[C@@H](C)/C=C(C)/C=C/[C@H](N[*:1])[C@H](C)C(=O)[*:2]; dAsp(3S-Me) = C[C@H](C(=O)[*:3])[C@@H](N[*:1])C(=O)[*:2]; d(γGlu) = O=C(O)[C@@H](CCC(=O)[*:2])N[*:1]; NMeDha = C=C(NC)C(=O)O

Legend:
[1] = test system: HeLa Control cells; conditions: read-out: IC50 HeLa Control
[2] = test system: OATP1B1-expressing HeLa cells; conditions: read-out: IC50 HeLa B1
[3] = test system: OATP1B3-expressing HeLa cells; conditions: for IC50: read-out: IC50 HeLa B3
[4] = test system: RKO control cells
[5] = test system: OATP1B1-expressing RKO cells; conditions: read-out: IC50 RKO B1
[6] = test system: OATP1B3-expressing RKO cells
[7] = test system: OATP1B1- and OATP1B3-expressing HeLa or RKO cell lines
[8] = test system: OATP1B1; assay: in vitro; conditions: human

Structure (SMILES) | IC50 [1] [nM] | IC50 [2] [nM] | Ratio IC50 B1/B3 HeLa [3] | IC50 [3] [nM] | IC50 ([4]; read-out: IC50 RKO control) [nM] | IC50 [5] [nM] | Ratio IC50 B1/B3 RKO [6] | IC50 ([6]; read-out: IC50 RKO B3) [nM] | transporter selectivity (in words) [7] | IC50 ([4]; 3 h) [nM] | IC50 ([6]; human) [nM] | IC50 [8] [nM] | IC50 values (potency grouping) [7]
C=C1C(=O)N[C@H](C)C(=O)N[C@@H](CC(C)C)C(=O)N[C@@H](C(=O)O)[C@H](C)C(=O)N[C@@H](CCCNC(=N)N)C(=O)N[C@@H](/C=C/C(C)=C/[C@H](C)[C@H](Cc2ccccc2)OC)[C@H](C)C(=O)N[C@@H](C(=O)O)CCC(=O)N1C [compound 1, MC-LR, reference compound] (R[Adda][d(γGlu)][NMeDha][dA]L[dAsp(3S-Me)]-OH; lactam N-7) | > 1000 | 1 | 0.2 | 5.1 | > 1000 | 8.2 | 0.3 | 26.9 | least OATP1B3 selective | – | – | – | –
C=C1C(=O)N[C@H](C)C(=O)N[C@@H](CC(C)C)C(=O)N[C@@H](C(=O)O)CC(=O)N[C@@H](CCCNC(=N)N)C(=O)N[C@@H](/C=C/C(C)=C/[C@H](C)[C@H](Cc2ccccc2)OC)[C@H](C)C(=O)N[C@@H](C(=O)O)CCC(=O)N1C [compound 2, [D-Asp^3]MC-LR] | – | – | – | – | > 1000 | 7.3 | 0.2 | 31.3 | least OATP1B3 selective | – | – | – | –
C=C1C(=O)N[C@H](C)C(=O)N[C@@H](CC(C)CC)C(=O)N[C@@H](C(=O)O)CC(=O)N[C@@H](CCCNC(=N)N)C(=O)N[C@@H](/C=C/C(C)=C/[C@H](C)[C@H](Cc2ccccc2)OC)[C@H](C)C(=O)N[C@@H](C(=O)O)CCC(=O)N1C (stereo partly drawn) [compound 3, [D-Asp^3]MC-HilR] | – | – | – | – | – | – | 0.4 | – | least OATP1B3 selective | > 1000 | 142 | 57 | –
C/C=C1/NC(=O)CC[C@H](C(=O)O)NC(=O)[C@@H](C)[C@H](/C=C/C(C)=C/[C@H](C)[C@H](Cc2ccccc2)OC)NC(=O)[C@H](CCCNC(=N)N)NC(=O)C[C@H](C(=O)O)NC(=O)[C@H](CC(C)CC)NC(=O)[C@@H](C)NC1=O (stereo partly drawn) [compound 4, [D-Asp^3,(E)-Dhb^7]MC-HilR] | – | – | – | – | – | – | 15.0 | – | most OATP1B3 selective | 993 | 3.8 | 56.9 | –
C=C1C(=O)N[C@H](C)C(=O)N[C@@H](CC(C)C)C(=O)N[C@@H](C(=O)O)[C@H](C)C(=O)N[C@@H](Cc2ccc(O)cc2)C(=O)N[C@@H](/C=C/C(C)=C/[C@H](C)[C@H](Cc2ccccc2)OC)[C@H](C)C(=O)N[C@@H](C(=O)O)CCC(=O)N1C [compound 5, MC-LY] (Y[Adda][d(γGlu)][NMeDha][dA]L[dAsp(3S-Me)]-OH; lactam N-7) | > 10 | 0.16 | 0.8 | 0.21 | – | – | – | – | least OATP1B3 selective | – | – | – | sub-nanomolar
C/C=C1/NC(=O)CC[C@H](C(=O)O)NC(=O)[C@@H](C)[C@H](/C=C/C(C)=C/[C@H](C)[C@H](Cc2ccccc2)OC)NC(=O)[C@H](Cc2ccc(O)cc2)NC(=O)C[C@H](C(=O)O)NC(=O)[C@H](CC(C)C)NC(=O)[C@@H](C)NC1=O [compound 6, [D-Asp^3,(E)-Dhb^7]MC-LY] | > 10 | 0.47 | 2.6 | 0.18 | – | – | – | – | weakly OATP1B3 selective | – | – | – | sub-nanomolar
C=C1C(=O)N[C@H](C)C(=O)N[C@@H](CC(C)C)C(=O)N[C@@H](C(=O)O)[C@H](C)C(=O)N[C@@H](Cc2c[nH]c3ccccc23)C(=O)N[C@@H](/C=C/C(C)=C/[C@H](C)[C@H](Cc2ccccc2)OC)[C@H](C)C(=O)N[C@@H](C(=O)O)CCC(=O)N1C [compound 8, LW, reference compound] (W[Adda][d(γGlu)][NMeDha][dA]L[dAsp(3S-Me)]-OH; lactam N-7) | > 1000 | 0.22 | 1.4 | 0.16 | > 1000 | 0.4 | 1.4 | 0.29 | weakly OATP1B3 selective | – | – | – | sub-nanomolar
C/C=C1/NC(=O)CC[C@H](C(=O)O)NC(=O)[C@@H](C)[C@H](/C=C/C(C)=C/[C@H](C)[C@H](Cc2ccccc2)OC)NC(=O)[C@H](Cc2c[nH]c3ccccc23)NC(=O)C[C@H](C(=O)O)NC(=O)[C@H](CC(C)C)NC(=O)[C@@H](C)NC1=O [compound 9, [D-Asp^3,(E)-Dhb^7]-MC-LW] | – | – | – | – | > 1000 | 11 | 1.4 | 7.7 | weakly OATP1B3 selective | – | – | – | –
C=C1C(=O)N[C@H](C)C(=O)N[C@@H](CCCNC(=N)N)C(=O)N[C@@H](C(=O)O)[C@H](C)C(=O)N[C@@H](Cc2ccccc2)C(=O)N[C@@H](/C=C/C(C)=C/[C@H](C)[C@H](Cc2ccccc2)OC)[C@H](C)C(=O)N[C@@H](C(=O)O)CCC(=O)N1C [compound 12, MC-RF] (F[Adda][d(γGlu)][NMeDha][dA]R[dAsp(3S-Me)]-OH; lactam N-7) | – | – | – | – | > 1000 | 58.3 | 17.2 | 3.38 | most OATP1B3 selective | – | – | – | –
